From patent US4599352A, “Antineoplastic platinum (IV) complexes and compositions” (priority 1984, dated 1986)

Legend:
[1] = test system: IP-Implanted L1210/Cisplatin; assay: Comparison of isomers: long term survivors and weight differences in treating IP-implanted L1210/Cisplatin (Table 6); format: in vivo, mice
Description: Comparative data for the others are as follows: 27 for trans d, 27 for trans d l and 13 for cis. […] The higher the ratio the more convenient it is to prepare a formulation for intravenous administration to patients which is shown in Table 7.

[2] = test system: bacteriophage lambda (lambda-lac Z fusion prophage); assay: Biochemical phage induction assay (BIA), induction of bacteriophage lambda (FIG. 1); format: cell-based, E. coli (BR 513)
Experimental: The platinum complexes are tested using the BIA quantitative tube assay for dose-dependent induction of bacteriophage lambda according to a previously published procedure of Sarma, D. et al. Chem. Biol. Interactions, 46: 219-232 (1983), which is incorporated herein by reference. A permeable strain of E. coli (BR 513) containing lambda phage is used to test all samples. Expression time for the assay is 5 hours at 38° C. Fresh dilutions of test samples are made in saline (0.85%) on the day of the experiment. Samples are made at 10×final concentration and dispensed according to assay procedure. Final concentrations are 300 μg/ml, 200 μg/ml, 100 μg/ml, 60 μg/ml, 25 μg/ml, 10 μg/ml and a zero control.
This strain of bacteria contains a chromosomally integrated lambda-lac Z fusion phage under control of the lambda repressor. Treatment with DNA-damaging agents leads to derepression of prophage and synthesis of β-galacto-sidase, product of the lac Z gene. β-galactosidase is detected by reaction with a substrate (O-nitrophenyl-D-galactopyranoside (ONPG)) to give a yellow-colored product. Tubes are incubated at 28° C. (a few minutes to several hours to an A420 ≈0.5-1.0). Color development is stopped by the addition of base (1M Na2 CO3), and the yellow color is measured by absorbance at 420 nm. The exact time required for color development is recorded. Enzyme Units=100 A420 /thr where A420 =absorbance at 420 nm; thr =time required to develop yellow color in hours. One enzyme unit is the approximate value of an uninduced control tube at zero time.
This assay detects a wide variety of compounds which interact with DNA. […] This finding may support the hypothesis that platinum IV complexes are chemically less reactive. However, in vivo there is evidence that platinum IV complexes may be reduced to platinum (II) complexes [Pendyala, L. Proceedings 13th International Cancer Congress, Seatle, Wash., #3034, page 531, (1982)]. […] It is noted that the four isomers are not equal in their ability to induce the prophage.

[3] = Solubility of platinum complexes (Table I and preparation examples); format: physicochemical
[4] = Comparative water solubilities of platinum complexes (Table 7)

| Compound | Total Grams of Weight Difference [1] [Grams] | Total number of long-term survivors [1] | Concentration of optimal effect in prophage induction [2] [µg/mL] | Effectiveness in inducing prophage [2] | Prophage induction, enzyme units [2] | Solubility in DMF ([3]; DMF) [mg/mL] | Solubility in methanol ([3]; methanol) [mg/mL] | Solubility in methanol-acetone ([3]; methanol-acetone (1:1)) [mg/mL] | Solubility in water ([3]; water) [mg/mL] | Ratio of 2/1 (weight difference / long-term survivors) [1] | Water Solubility ([4]; Table 7) | Water Solubility mg/L / Mouse Optimal Dose (mg/kg) ([4]; ratio of water solubility to mouse optimal dose) |
| --- | --- | --- | --- | --- | --- | --- | --- | --- | --- | --- | --- | --- |
| [Cl][Pt-2]1([Cl])([Cl])([Cl])[NH2+][C@@H]2CCCC[C@H]2[NH2+]1 [trans (l), (1R,2R)-Tetrachloro-trans-1,2-cyclohexanediammine platinum (IV)] | -6.0 | 17 | 50 | most effective inducers among the four | about 104 enzyme units | – | – | – | – | – | – | – |
| [Cl][Pt-2]1([Cl])([Cl])([Cl])[NH2+][C@H]2CCCC[C@@H]2[NH2+]1 [trans (d), (1S, 2S)-Tetrachloro-trans-1,2-cyclohexanediamine platinum (IV)] | -11.9 | 11 | 25 | most effective inducers among the four | about 104 enzyme units | – | – | – | – | – | – | – |
| Tetrachloro-cis-1,2-cyclohexanediamine platinum (IV) | -5.6 | 4 | – | practically inert | – | 250 | 50 | 200 | < 10 | 1.40 | 2,000 mg/L | 250 mg/L / (mg/kg) |
| [Cl][Pt]1([Cl])([Cl])([Cl])[NH]C2CCCCC2[NH]1 (stereo not drawn) [trans (d, l), (d,l)-Tetrachloro-trans-1,2-cyclohexanediamine platinum (IV)] | -10.0 | 12 | – | intermediate in effectiveness | about 68 enzyme units | – | – | – | – | – | – | – |
